Source: ChEMBL document CHEMBL5360657, “Discovery of the TLR7/8 Antagonist MHV370 for Treatment of Systemic Autoimmune Diseases” (ACS Med Chem Lett, 2023)

Tests used:
[1] = target: Voltage-gated inwardly rectifying potassium channel KCNH2 (Homo sapiens, UniProt Q12809); assay: Displacement of [3H]-dofetilite from human ERG (unknown origin); type: toxicity
[2] = Metabolic stability in rat liver microsomes assessed as intrinsic clearance; type: ADME, Microsome; conditions: read-out: CLH
[3] = Permeability of the compound by PAMPA; type: ADME
Cytochrome P450 3A4 [4] = target: T1, Cytochrome P450 3A4 (Homo sapiens, UniProt P08684); assay: Inhibition of CYP3A4 (unknown origin); type: ADME
T1 sequence (P08684 whole entry): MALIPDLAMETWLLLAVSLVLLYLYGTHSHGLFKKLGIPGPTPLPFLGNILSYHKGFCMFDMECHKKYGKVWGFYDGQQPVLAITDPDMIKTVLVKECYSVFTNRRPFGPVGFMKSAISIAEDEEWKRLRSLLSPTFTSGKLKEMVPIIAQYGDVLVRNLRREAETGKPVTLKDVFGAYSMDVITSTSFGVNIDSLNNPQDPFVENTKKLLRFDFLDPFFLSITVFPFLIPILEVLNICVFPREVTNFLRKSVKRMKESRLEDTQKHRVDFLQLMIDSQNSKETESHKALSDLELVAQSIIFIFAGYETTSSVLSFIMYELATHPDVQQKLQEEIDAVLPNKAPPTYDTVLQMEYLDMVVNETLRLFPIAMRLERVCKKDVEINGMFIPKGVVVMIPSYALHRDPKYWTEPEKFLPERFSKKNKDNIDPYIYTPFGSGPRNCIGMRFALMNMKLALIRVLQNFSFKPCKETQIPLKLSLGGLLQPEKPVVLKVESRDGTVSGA

Cytochrome P450 3A4 [5] = target: T1, Cytochrome P450 3A4; assay: Time dependent inhibition of CYP3A4 (unknown origin) assessed as Kobs; type: ADME
Toll-like receptor 8 = target: T2, Toll-like receptor 8 (Homo sapiens, UniProt Q9NR97); assay: Antagonist activity at TLR8 in human PBMC cells […] assessed as reduction in IL-6 level measured after 20 hrs by AlphaLISA assay; type: cell-based
T2 sequence (Q9NR97 whole entry): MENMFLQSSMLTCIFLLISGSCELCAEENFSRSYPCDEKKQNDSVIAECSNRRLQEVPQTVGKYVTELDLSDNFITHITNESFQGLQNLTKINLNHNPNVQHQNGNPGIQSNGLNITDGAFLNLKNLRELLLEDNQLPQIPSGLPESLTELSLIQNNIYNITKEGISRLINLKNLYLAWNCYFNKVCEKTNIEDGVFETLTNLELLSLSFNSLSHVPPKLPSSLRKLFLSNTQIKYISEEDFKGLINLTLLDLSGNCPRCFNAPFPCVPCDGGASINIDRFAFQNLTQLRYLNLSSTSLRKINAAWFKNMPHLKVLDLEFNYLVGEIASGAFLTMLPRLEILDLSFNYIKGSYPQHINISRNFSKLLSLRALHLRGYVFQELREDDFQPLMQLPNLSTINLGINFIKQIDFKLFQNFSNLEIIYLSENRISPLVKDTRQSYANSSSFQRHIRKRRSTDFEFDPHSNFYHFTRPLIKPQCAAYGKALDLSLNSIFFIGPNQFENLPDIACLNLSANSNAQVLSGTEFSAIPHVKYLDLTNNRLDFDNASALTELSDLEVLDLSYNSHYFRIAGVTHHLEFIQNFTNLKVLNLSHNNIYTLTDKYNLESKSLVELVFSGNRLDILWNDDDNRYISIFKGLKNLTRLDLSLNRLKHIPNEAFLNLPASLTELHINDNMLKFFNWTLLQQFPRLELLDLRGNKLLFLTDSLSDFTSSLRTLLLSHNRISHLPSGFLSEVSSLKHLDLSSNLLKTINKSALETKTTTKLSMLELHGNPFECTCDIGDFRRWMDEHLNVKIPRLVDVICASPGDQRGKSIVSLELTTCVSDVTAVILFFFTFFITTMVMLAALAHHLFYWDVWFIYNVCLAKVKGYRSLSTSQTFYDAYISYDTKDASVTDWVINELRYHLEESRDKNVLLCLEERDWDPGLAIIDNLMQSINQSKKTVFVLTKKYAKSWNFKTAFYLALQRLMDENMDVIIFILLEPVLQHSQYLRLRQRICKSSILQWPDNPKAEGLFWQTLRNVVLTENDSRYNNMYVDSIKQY

[6] = Metabolic stability in human liver microsomes assessed as intrinsic clearance; type: ADME, Microsome; conditions: read-out: CLH
[7] = Metabolic stability in mouse liver microsomes assessed as intrinsic clearance; type: ADME, Microsome; conditions: read-out: CLH
[8] = Solubility of the compound; type: physicochemical
Toll-like receptor 9 = target: T3, Toll-like receptor 9 (Homo sapiens, UniProt Q9NR96); assay: Antagonist activity at TLR9 in human PBMC cells assessed as reduction in IFN alpha measured after 20 hrs by AlphaLISA assay; type: cell-based
T3 sequence (Q9NR96 whole entry): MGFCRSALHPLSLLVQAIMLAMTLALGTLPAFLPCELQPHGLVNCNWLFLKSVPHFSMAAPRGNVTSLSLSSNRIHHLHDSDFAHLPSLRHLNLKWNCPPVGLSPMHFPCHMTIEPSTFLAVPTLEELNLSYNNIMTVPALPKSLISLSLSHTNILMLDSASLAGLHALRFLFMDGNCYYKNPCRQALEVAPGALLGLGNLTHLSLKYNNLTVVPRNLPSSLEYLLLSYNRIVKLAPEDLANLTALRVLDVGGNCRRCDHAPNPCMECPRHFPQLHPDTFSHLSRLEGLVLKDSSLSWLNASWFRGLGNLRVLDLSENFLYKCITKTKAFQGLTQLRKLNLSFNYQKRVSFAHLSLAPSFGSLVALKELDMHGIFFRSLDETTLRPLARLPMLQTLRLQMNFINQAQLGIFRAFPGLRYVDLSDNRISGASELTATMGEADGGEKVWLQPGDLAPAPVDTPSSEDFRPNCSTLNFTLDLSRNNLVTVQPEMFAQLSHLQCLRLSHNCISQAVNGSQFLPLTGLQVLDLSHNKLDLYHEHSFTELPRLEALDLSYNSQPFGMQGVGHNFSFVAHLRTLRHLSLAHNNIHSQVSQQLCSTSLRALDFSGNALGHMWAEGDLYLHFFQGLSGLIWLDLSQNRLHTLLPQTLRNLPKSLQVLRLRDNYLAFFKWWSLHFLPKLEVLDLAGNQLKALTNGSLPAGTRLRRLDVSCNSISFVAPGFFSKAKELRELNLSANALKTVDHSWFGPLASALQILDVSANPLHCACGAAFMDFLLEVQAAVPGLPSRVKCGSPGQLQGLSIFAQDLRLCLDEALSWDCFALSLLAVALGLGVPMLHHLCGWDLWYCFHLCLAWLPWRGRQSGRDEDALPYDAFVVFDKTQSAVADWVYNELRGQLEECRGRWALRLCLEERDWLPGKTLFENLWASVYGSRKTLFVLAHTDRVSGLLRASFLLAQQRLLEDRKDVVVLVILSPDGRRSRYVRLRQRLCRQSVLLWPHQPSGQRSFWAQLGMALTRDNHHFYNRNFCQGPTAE

Toll-like receptor 7 = target: T4, Toll-like receptor 7 (Homo sapiens, UniProt Q9NYK1); assay: Antagonist activity at TLR7 in human PBMC cells assessed as reduction in IFN alpha measured after 20 hrs by AlphaLISA assay; type: cell-based
T4 sequence (Q9NYK1 whole entry): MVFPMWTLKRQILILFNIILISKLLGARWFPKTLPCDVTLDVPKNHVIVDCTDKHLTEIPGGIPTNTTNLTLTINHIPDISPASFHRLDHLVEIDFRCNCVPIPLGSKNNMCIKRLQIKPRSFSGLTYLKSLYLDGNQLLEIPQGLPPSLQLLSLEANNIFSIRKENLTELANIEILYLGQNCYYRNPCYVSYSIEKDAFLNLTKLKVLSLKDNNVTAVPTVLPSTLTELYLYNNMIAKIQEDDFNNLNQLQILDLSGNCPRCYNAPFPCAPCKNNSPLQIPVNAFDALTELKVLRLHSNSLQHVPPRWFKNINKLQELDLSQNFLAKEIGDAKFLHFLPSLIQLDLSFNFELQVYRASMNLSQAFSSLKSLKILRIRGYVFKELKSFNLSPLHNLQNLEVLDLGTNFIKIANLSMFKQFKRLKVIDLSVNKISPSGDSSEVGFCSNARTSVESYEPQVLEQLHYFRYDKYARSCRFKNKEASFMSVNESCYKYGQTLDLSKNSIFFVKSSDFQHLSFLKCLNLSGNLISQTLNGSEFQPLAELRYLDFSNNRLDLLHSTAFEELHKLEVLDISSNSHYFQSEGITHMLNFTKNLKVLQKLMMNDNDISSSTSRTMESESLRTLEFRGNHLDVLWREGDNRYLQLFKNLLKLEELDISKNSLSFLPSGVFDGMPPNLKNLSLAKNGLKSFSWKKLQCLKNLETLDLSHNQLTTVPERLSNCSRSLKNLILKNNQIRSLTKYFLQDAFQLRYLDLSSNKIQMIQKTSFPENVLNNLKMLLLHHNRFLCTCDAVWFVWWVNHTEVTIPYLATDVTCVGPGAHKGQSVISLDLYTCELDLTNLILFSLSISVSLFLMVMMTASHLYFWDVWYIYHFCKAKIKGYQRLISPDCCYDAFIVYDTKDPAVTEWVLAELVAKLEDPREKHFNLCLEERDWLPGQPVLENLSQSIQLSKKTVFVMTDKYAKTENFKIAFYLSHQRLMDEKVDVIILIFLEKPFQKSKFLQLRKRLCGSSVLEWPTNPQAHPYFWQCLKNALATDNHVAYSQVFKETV

Sequence of Voltage-gated inwardly rectifying potassium channel KCNH2 (Q12809 whole entry): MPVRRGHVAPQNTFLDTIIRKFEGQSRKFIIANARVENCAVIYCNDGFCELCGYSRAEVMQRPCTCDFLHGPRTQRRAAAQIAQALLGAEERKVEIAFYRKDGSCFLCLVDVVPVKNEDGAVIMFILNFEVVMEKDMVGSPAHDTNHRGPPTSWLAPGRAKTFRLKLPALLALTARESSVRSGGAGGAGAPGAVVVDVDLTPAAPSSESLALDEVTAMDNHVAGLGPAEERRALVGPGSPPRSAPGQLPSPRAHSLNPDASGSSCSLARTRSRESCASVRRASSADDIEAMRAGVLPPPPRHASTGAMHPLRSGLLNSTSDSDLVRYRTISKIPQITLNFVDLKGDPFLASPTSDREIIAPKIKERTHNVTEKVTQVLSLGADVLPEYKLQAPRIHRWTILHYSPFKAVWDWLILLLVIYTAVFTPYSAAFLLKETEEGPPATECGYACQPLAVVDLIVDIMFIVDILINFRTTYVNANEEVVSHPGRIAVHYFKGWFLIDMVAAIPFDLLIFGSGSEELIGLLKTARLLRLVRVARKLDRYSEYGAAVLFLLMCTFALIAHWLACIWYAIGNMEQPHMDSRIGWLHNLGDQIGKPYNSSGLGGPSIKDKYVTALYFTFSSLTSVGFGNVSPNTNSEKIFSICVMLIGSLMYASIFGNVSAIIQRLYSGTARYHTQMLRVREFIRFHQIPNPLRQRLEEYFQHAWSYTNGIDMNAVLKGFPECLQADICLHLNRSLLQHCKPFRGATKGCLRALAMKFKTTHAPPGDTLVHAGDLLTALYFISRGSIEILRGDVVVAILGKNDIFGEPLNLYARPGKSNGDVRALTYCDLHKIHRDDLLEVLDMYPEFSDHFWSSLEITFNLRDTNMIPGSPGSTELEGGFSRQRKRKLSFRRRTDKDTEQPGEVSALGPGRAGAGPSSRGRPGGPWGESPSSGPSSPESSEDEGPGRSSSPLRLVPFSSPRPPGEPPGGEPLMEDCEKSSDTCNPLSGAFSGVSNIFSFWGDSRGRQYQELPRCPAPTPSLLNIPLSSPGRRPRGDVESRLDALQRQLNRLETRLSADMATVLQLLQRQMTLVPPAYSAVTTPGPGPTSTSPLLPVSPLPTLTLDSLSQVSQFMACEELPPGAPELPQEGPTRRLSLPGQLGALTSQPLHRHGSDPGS

| Structure (SMILES) | microsomal CLint [2] [µL/min/mg] | log(permeability) [3] | IC50 (Cytochrome P450 3A4 [4]) [nM] | Kobs (Cytochrome P450 3A4 [5]) [min⁻¹] | IC50 (Toll-like receptor 8) [nM] | microsomal CLint [6] [µL/min/mg] | microsomal CLint [7] [µL/min/mg] | solubility [8] [µM] | IC50 (Toll-like receptor 9) [nM] | IC50 (Toll-like receptor 7) [nM] | IC50 [1] [nM] |
| --- | --- | --- | --- | --- | --- | --- | --- | --- | --- | --- | --- |
| Cc1cc(N2CCc3c(c(C)nn3CC34CCC(N5CCCC5)(CC3)CC4)C2)c2cnn(C)c2n1 | 55 | -4.7 | 18000 | 0.022 | 85 | 62 | 24 | > 175 | 350 |  | 11000 |
| Cc1cc(N2CCc3c(c(C)nn3CC34CCC(N5CCN(C)CC5=O)(CC3)CC4)C2)c2cnn(C)c2n1 | 50 | -4.3 | > 50000 |  |  | 71 | 251 |  | 5500 | 19 | > 30000 |
| Cc1cc(N2CCc3c(c(C)nn3CC34CCC(NCC(F)F)(CC3)CC4)C2)c2cnn(C)c2n1 | 656 | -3.7 | 8600 | 0.011 | 140 | 423 |  | > 175 |  |  | > 30000 |
| Cc1cc(N2CCc3c(c(C)nn3CC34CCC(NC(=O)[C@@H]5CNCCO5)(CC3)CC4)C2)c2cnn(C)c2n1 | 24 | -5.2 | 5500 |  | 67 | 135 | 93 |  | 190 | 2 |  |
| Cc1cc(N2CCc3c(c(C)nn3CC34CCC(NC(=O)[C@H]5COCCN5)(CC3)CC4)C2)c2cnn(C)c2n1 | < 15 | -5.3 | > 50000 | 0.018 | 220 | 54 | 382 |  | 1900 | 13 | > 30000 |
| Cc1cc(N2CCc3c(c(C)nn3CC34CCC(N5CCN(C)C(=O)C5)(CC3)CC4)C2)c2cnn(C)c2n1 | 87 | -5 | > 50000 | 0.015 | 400 | 39 | 103 |  | > 7300 | 56 | > 30000 |
| Cc1cc(N2CCc3c(c(C)nn3CC34CCC(N5CCC5)(CC3)CC4)C2)c2cnn(C)c2n1 | 30 | -4.7 | > 50000 | 0.015 | 120 | 96 | 65 |  | 530 | 5 | > 30000 |

Second part, led by results:

| microsomal CLint [2] [µL/min/mg] | log(permeability) [3] | IC50 (Cytochrome P450 3A4 [4]) [nM] | Kobs (Cytochrome P450 3A4 [5]) [min⁻¹] | IC50 (Toll-like receptor 8) [nM] | microsomal CLint [6] [µL/min/mg] | microsomal CLint [7] [µL/min/mg] | solubility [8] [µM] | IC50 (Toll-like receptor 9) [nM] | IC50 (Toll-like receptor 7) [nM] | Structure (SMILES) | IC50 [1] [nM] |
| --- | --- | --- | --- | --- | --- | --- | --- | --- | --- | --- | --- |
| 48 | -4.1 | 28000 | 0.013 | 7 | 463 | > 700 |  |  | < 5 | CCN(C)CC(=O)NC12CCC(Cn3nc(C)c4c3CCN(c3cc(C)nc5c3cnn5C)C4)(CC1)CC2 | > 30000 |
| 37 | -4.6 | 17000 | 0.044 | 60 | 90 |  |  | 280 | 1 | Cc1cc(N2CCc3c(c(C)nn3CC34CCC(NC(=O)CN5CCC5)(CC3)CC4)C2)c2cnn(C)c2n1 | > 30000 |
| < 15 | -5.3 | > 50000 | 0.023 | 190 | < 15 | 120 |  | 780 |  | CN[C@H](C)C(=O)NC12CCC(Cn3nc(C)c4c3CCN(c3cc(C)nc5c3cnn5C)C4)(CC1)CC2 | > 30000 |
| 45 | -4.6 | 24000 | 0.022 | > 10000 | 63 |  | > 175 | 5200 |  | CC(=O)NC12CCC(Cn3nc(C)c4c3CCN(c3cc(C)nc5c3cnn5C)C4)(CC1)CC2 | > 30000 |
| 33 | -4.3 | > 50000 | 0.006 | 25 | 147 | 104 |  | 730 | 6 | Cc1cc(N2CCc3c(c(C)nn3CC34CCC(NC(=O)CN(C)C)(CC3)CC4)C2)c2cnn(C)c2n1 | > 30000 |
| < 15 | -4.1 |  |  |  | 329 | 531 |  | 1200 | 4 | Cc1cc(N2CCc3c(c(C)nn3CC34CCC(NC(=O)CN5CCCC5)(CC3)CC4)C2)c2cnn(C)c2n1 |  |
| 29 | -5.4 |  |  | 190 | 31 | < 15 |  | 3000 | 41 | Cc1cc(N2CCc3c(c(C)nn3CC34CCC(NCC(=O)N(C)C)(CC3)CC4)C2)c2cnn(C)c2n1 |  |
